From patent US8134015B2, “Compound inhibiting in vivo phosphorous transport and medicine containing the same” (Kyowa Hakko Kirin Co., Ltd., priority 2003, dated 2012) come the findings set out here.

Structures can show the parent of a compound that is named as a salt.

The target in this assay is T1, rat NaPi-2b (Rattus norvegicus, UniProt Q9JJ09).
T1 construct: expressed in transfected cells; host or cells: Xenopus oocytes injected with cRNA
T1 sequence (Q9JJ09 1-695): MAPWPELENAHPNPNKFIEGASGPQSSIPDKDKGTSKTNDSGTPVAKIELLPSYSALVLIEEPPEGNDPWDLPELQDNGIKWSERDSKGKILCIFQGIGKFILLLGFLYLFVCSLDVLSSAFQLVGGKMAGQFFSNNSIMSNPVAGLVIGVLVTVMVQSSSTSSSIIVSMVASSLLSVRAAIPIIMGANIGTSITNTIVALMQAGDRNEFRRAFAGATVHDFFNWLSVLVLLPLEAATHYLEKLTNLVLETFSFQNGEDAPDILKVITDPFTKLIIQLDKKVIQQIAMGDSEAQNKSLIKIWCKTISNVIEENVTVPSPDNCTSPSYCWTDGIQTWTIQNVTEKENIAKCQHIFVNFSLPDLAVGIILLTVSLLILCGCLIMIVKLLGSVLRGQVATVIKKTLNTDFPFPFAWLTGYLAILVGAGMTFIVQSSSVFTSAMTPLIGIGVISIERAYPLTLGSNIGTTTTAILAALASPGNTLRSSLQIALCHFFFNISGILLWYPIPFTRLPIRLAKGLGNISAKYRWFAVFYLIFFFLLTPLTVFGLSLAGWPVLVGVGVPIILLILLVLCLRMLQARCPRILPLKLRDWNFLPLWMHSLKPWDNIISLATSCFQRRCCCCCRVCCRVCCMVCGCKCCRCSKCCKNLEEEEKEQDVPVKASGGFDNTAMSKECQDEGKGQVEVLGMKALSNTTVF
As to the kind of experiment: Sodium-dependent phosphate uptake of Xenopus oocytes which expressed NaPi-2b (32P). Particulars: for IC50: Xenopus oocytes expressing rat NaPi-2b, 32P radioactive phosphorus, read-out: IC50 (phosphate uptake inhibitory activity); for inhibition at 300 µM: phosphate uptake, oocytes expressing rat NaPi-2b, determined from inhibition curve. It is filed as cell-based. The procedure, abridged:
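Steps: rat NaPi-2b cDNA cloned from small intestine; cRNA made and injected into oocytes; 2-day expression; 32P phosphate uptake with compound; % inhibition at 300/100 μM taken from one curve.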

In general, IC50 refers to the point on the concentration scale where inhibition reaches its midpoint. For the compound `Cc1ccc(/C=N/NC(=O)c2cc(Br)ccc2NC(=O)c2ccc(CN3CCC(CCO)CC3)cc2)cc1C` [Compound 340, N-[4-Bromo-2-(3,4-dimethyl-benzylidene-hydrazinocarbonyl)-phenyl]-4-[4-(2-hydroxy-ethyl)-piperidin-1-ylmethyl]-benzamide], the IC50 is 8.41 µM.

In the case of `O=C(Nc1ccc(Br)cc1C(=O)N/N=C/c1cccc(F)c1)c1cccc(C[S+]([O-])c2nc[nH]n2)c1` (stereo not shown) [Compound 341, N-[4-Bromo-2-(3-fluoro-benzylidene-hydrazinocarbonyl)-phenyl]-3-(1H-[1,2,4]triazole-3-sulfinylmethyl)-benzamide], the IC50 was below 3 µM.

As to `CCN(CC)CCN(C)Cc1cccc(C(=O)Nc2c(C)csc2C(=O)N/N=C/c2ccc(C)c(C)c2)c1` [Compound 342, 3-{[(2-Diethylamino-ethyl)-methyl-amino]-methyl}-N-[2-(3,4-dimethyl-benzylidene-hydrazinocarbonyl)-4-methyl-thiophen-3-yl]-benzamide], the IC50 came out at 32.6 µM.

Consider `CCN(CC)CCN(C)Cc1cccc(C(=O)Nc2c(C)csc2C(=O)N/N=C/c2ccc(C)cc2)c1` [Compound 343, 3-{[(2-Diethylamino-ethyl)-methyl-amino]-methyl}-N-[4-methyl-2-(4-methyl-benzylidene-hydrazinocarbonyl)-thiophen-3-yl]-benzamide], for which the IC50 was 124 µM.

For `CCN(CC)CCN(C)Cc1cccc(C(=O)Nc2c(C)csc2C(=O)N/N=C/c2ccc(Cl)c(C(F)(F)F)c2)c1` [Compound 344, N-[2-(4-Chloro-3-trifluoromethyl-benzylidene-hydrazinocarbonyl)-4-methyl-thiophen-3-yl]-3-{[(2-diethylamino-ethyl)-methyl-amino]-methyl}-benzamide], the 50% inhibitory concentration (IC50) came to 31 µM.

For `Cc1ccc(/C=N/NC(=O)c2scc(C)c2NC(=O)c2cccc(CN3CCC(N4CCCCC4)CC3)c2)cc1C` [Compound 345, 3-[1,4′]Bipiperidinyl-1′-ylmethyl-N-[2-(3,4-dimethyl-benzylidene-hydrazinocarbonyl)-4-methyl-thiophen-3-yl]-benzamide], the IC50 stood at 130 µM.

In the case of `O=C(Nc1ccc(Br)cc1C(=O)N/N=C/C=C/c1ccccc1)c1cccnc1` [Compound 346, N-[4-Bromo-2-(3-phenyl-allylidene-hydrazinocarbonyl)-phenyl]-nicotinamide], the IC50 was 4.46 µM.

As for `O=C(Nc1ccc(Br)cc1C(=O)N/N=C/C=C/c1ccccc1)c1ccncc1` [Compound 347, N-[4-Bromo-2-(3-phenyl-allylidene-hydrazinocarbonyl)-phenyl]-isonicotinamide], the IC50 was 4.91 µM.

`O=C(Nc1ccc(Cl)cc1C(=O)N/N=C/C=C/c1ccccc1)c1cccnc1` [Compound 348, N-[4-Chloro-2-(3-phenyl-allylidene-hydrazinocarbonyl)-phenyl]-nicotinamide]: the half-inhibitory concentration (IC50) was 16.6 µM.

For the compound `O=C(Nc1ccc(Cl)cc1C(=O)N/N=C/C=C/c1ccccc1)c1ccncc1` [Compound 349, N-[4-Chloro-2-(3-phenyl-allylidene-hydrazinocarbonyl)-phenyl]-isonicotinamide], the IC50 worked out at 8.78 µM.

For the compound `O=C(Nc1ccc(Br)cc1C(=O)N/N=C/c1cccc(OCCO)c1)c1ccncc1` [Compound 350, N-{4-Bromo-2-[3-(2-hydroxy-ethoxy)-benzylidene-hydrazinocarbonyl]-phenyl}-isonicotinamide], the IC50 was 25.3 µM.

With `O=C(Nc1ccc(Cl)cc1C(=O)N/N=C/c1cccc(OCCO)c1)c1ccncc1` [Compound 351, N-{4-Chloro-2-[3-(2-hydroxy-ethoxy)-benzylidene-hydrazinocarbonyl]-phenyl}-isonicotinamide], the IC50 was 8.96 µM.

For `COc1ccccc1/C=C/C=N/NC(=O)c1cc(Br)ccc1NC(=O)c1cccnc1` [Compound 352, N-{4-Bromo-2-[3-(2-methoxy-phenyl)-allylidene-hydrazinocarbonyl]-phenyl}-nicotinamide], the IC50 was 13 µM.

With `COc1ccccc1/C=C/C=N/NC(=O)c1cc(Br)ccc1NC(=O)c1ccncc1` [Compound 353, N-{4-Bromo-2-[3-(2-methoxy-phenyl)-allylidene-hydrazinocarbonyl]-phenyl}-isonicotinamide], the half-maximal inhibitory concentration (IC50) is 8.85 µM.

Take `COc1ccccc1/C=C/C=N/NC(=O)c1cc(Cl)ccc1NC(=O)c1cccnc1` [Compound 354, N-{4-Chloro-2-[3-(2-methoxy-phenyl)-allylidene-hydrazinocarbonyl]-phenyl}-nicotinamide]: the IC50 was determined as 1.54 µM.

Regarding `Cc1ccc(/C=N/NC(=O)c2cc(Br)ccc2NC(=O)c2ccccn2)cc1` [Compound 356, Pyridin-2-carboxylic acid [4-bromo-2-(4-methyl-benzylidene-hydrazinocarbonyl)-phenyl]-amide hydrochloride], the IC50 was 0.17 µM.

By inhibition is commonly meant the drop in the measured response relative to a control, in per cent. Low readings indicate little suppression, high ones strong suppression. Turning to `Cc1cccc(/C=N/NC(=O)c2cc(Br)ccc2NC(=O)c2ccc(CSc3cccc(F)c3)cc2)c1` [Compound 357, N-[4-Bromo-2-(3-methyl-benzylidene-hydrazinocarbonyl)-phenyl]-4-(3-fluoro-phenylsulfanylmethyl)-benzamide], the inhibition at 300 µM came to 65.8%.

With `CN(C)c1ccc(/C=C/C=N/NC(=O)c2ccccc2NC(=O)c2cccnc2)cc1` [Compound 358, N-{2-[3-(4-Dimethylamino-phenyl)-allylidene-hydrazinocarbonyl]-phenyl}-nicotinamide], the IC50 was found to be 54.1 µM.

Regarding `O=C(Nc1ccc(Cl)cc1C(=O)N/N=C/c1cccc(F)c1)c1ccccn1` [Compound 359, Pyridin-2-carboxylic acid [4-chloro-2-(3-fluoro-benzylidene-hydrazinocarbonyl)-phenyl]-amide], the IC50 is 7.1 µM.

Turning to `O=C(Nc1ccc(Cl)cc1C(=O)N/N=C/c1ccc(F)cc1)c1ccccn1` [Compound 360, Pyridin-2-carboxylic acid [4-chloro-2-(4-fluoro-benzylidene-hydrazinocarbonyl)-phenyl]-amide], the IC50 is 0.63 µM.

As to `Cc1cccc(/C=N/NC(=O)c2cc(Cl)ccc2NC(=O)c2ccccn2)c1` [Compound 361, Pyridin-2-carboxylic acid [4-chloro-2-(3-methyl-benzylidene-hydrazinocarbonyl)-phenyl]-amide], the IC50 is below 1 µM.

In the case of `Cc1ccc(/C=N/NC(=O)c2cc(Cl)ccc2NC(=O)c2ccccn2)cc1` [Compound 362, Pyridin-2-carboxylic acid [4-chloro-2-(4-methyl-benzylidene-hydrazinocarbonyl)-phenyl]-amide], the half-inhibitory concentration (IC50) was below 1 µM.

Take `Cc1ccc(/C=N/NC(=O)c2cc(Cl)ccc2NC(=O)c2ccccn2)cc1C` [Compound 363, Pyridin-2-carboxylic acid [4-chloro-2-(3,4-dimethyl-benzylidene-hydrazinocarbonyl)-phenyl]-amide]: the IC50 is below 1 µM.

For the compound `O=C(Nc1ccc(Cl)cc1C(=O)N/N=C/c1ccc(Cl)c(C(F)(F)F)c1)c1ccccn1` [Compound 364, Pyridin-2-carboxylic acid [4-chloro-2-(4-chloro-3-trifluoromethyl-benzylidene-hydrazinocarbonyl)-phenyl]-amide], the IC50 was below 1 µM.

`Cc1ccc(CNNC(=O)c2cc(Cl)ccc2NC(=O)c2cccc(CSc3ccncc3)c2)cc1C` [Compound 366, N-{4-Chloro-2-[N′-(3,4-dimethyl-benzyl)-hydrazinocarbonyl]-phenyl}-3-(pyridin-4-ylsulfanylmethyl)-benzamide] displayed an inhibition at 300 µM of 69.9%.
